Results as given in patent publication US20190055231A1, “BACE1 INHIBITORS” (Hoffmann-La Roche Inc., priority 2016, published 2019).
Where “and” joins values, the source holds several entries; their conditions need not be identical. Equal values may be shown once. Read-outs that look alike come from different tables or passages of the source.

Assays:
BACE1 [1] = target: T1, BACE1 (Homo sapiens, UniProt P56817); assay: BACE1 cell-free assay (BACE1 enzyme assay); assay type: biochemical
Description: BACE1 Cell-Free Assay (BACE1 Enzyme Assay)
(§1) The determination of BACE1 activity can be either measured by using an enzymatic cell-free fluorescence assay (BACE1 cell free, table 2) or by a whole cell assay using HEK293 APP cells (Cellular Aβ-lowering, table 2). Both assays are suitable to determine BACE1 inhibition.

BACE1 [2] = target: T1, BACE1; assay: Cellular Aβ-lowering assay (Abeta 40 AlphaLISA, HEK293 APP cells); assay type: cell-based; parameters: endogenous in cells; host or cells: HEK293 APP cells; conditions: HEK293 APP cells, Aβ40 in supernatant; read-out: BACE1 cell act. Aβ40 IC50
Experimental: Cellular Aβ-Lowering Assay:
The Abeta 40 AlphaLISA Assay can be used. The HEK293 APP cells were seeded in 96 well Microtiter plates in cell culture medium (Iscove's, plus 10% (v/v) fetal bovine serum, penicillin/streptomycin) to about 80% confluency and the compounds were added at a 3× concentration in ⅓ volume of culture medium (final DMSO concentration was kept at 1% v/v). After 18-20 hrs incubation at 37° C. and 5% CO2 in a humidified incubator, the culture supernatants were harvested for the determination of AP 40 concentrations using Perkin-Elmer Human Amyloid beta 1-40 (high specificity) Kit (Cat#AL275C).
In a Perkin-Elmer White Optiplate-384 (Cat#6007290), 2 ul culture supernatants were combined with 2 μl of a 10× AlphaLISA Anti-hAP Acceptor beads+Biotinylated Antibody Anti-Aβ 1-40 Mix (50 μg/mL/5 nM). After 1 hour room temperature incubation, 16 μl of a 1.25× preparation of Streptavidin (SA) Donor beads (25 μg/mL) were added and incubated for 30 minutes in the Dark. Light Emission at 615 nm was then recorded using EnVision-Alpha Reader. Levels of AP 40 in the culture supernatants were calculated as percentage of maximum signal (cells treated with 1% DMSO without inhibitor). The IC50 value were calculated using the Excel XLfit software.
Cellular Aβ-Lowering Assay (Cell-Based Assay)
as §1

Rat single dose PK study = assay type: in vivo; conditions: 1 mg/kg; for concentration at 4 h: oral
Experimental: (§2) Rat Single Dose PK Study (Inhibition of CSF Aβ40 in Wistar Rats)
(§3) The rat single dose PK study was described in H. Hilpert et al., J. Med. Chem. 2013, 56, 3980-3995 (dx.doi.org/10.1021/jm400225m) with slight modifications.
Blood is transferred into a labeled EDTA-K2 Eppendorf tube and the sample is mixed by inverting the tubes several times. Blood is stored at −20° C.

CSF Aβ40 = assay: Rat single dose study, inhibition of CSF Aβ40 in Wistar rats; assay type: in vivo; conditions: rat CSF Aβ40, 1 mg/kg, 4 h post dose
Experimental: as §2, §3
Aβ 40 concentration was determined without solid phase extraction following a modified protocol from Perkin-Elmer with a commercially available antibody against the N-terminal part of rat Aβ (252Q6, Invitrogen cat. No. AMB0062) and an in-house C-terminal specific anti-Aβ40 antibody (BAP-24, Brockhaus M. et al., J. Neuroreport, 1998, 9:1481-1486) bound to acceptor beads (PerkinElmer, Cat. 6772002). 20 μl analyte per well (reconstituted extracts or standard) were loaded to a White Optiplate-96 (Perkin-Elmer, Cat#6005290). Then, a mixture of biotinylated BAP24 antibody (1:2000 diluted at approximately 1 nM final concentration) and antibody 252Q6 bound to AlphaLISA acceptor beads (Perkin-Elmer cat. No. 6772002 (1:100 diluted, 10 ug/mL final concentration) in 1× AlphaLISA buffer (Perkin-Elmer, AL000F) was added. After 1 hour room temperature incubation in the dark, 20 μL of a streptavidin coated donor beads dilution (40 μg/mL) were added and incubated for 30 minutes in the dark. Light emission at 615 nm was recorded using an EnVision AlphaScreen Reader (Perkin-Elmer). Levels of Aβ 40 were calculated as percentage of the baseline samples from non-treated animals.

BACE2 = target: T2, BACE2 (Homo sapiens, UniProt Q9Y5Z0); assay: BACE2 cell-free assay (BACE2 enzyme assay); assay type: biochemical; conditions: for BACE2/BACE1 IC50 ratio: BACE2 IC50 divided by BACE1 IC50, cell free assays
T2 sequence (Q9Y5Z0 63-518): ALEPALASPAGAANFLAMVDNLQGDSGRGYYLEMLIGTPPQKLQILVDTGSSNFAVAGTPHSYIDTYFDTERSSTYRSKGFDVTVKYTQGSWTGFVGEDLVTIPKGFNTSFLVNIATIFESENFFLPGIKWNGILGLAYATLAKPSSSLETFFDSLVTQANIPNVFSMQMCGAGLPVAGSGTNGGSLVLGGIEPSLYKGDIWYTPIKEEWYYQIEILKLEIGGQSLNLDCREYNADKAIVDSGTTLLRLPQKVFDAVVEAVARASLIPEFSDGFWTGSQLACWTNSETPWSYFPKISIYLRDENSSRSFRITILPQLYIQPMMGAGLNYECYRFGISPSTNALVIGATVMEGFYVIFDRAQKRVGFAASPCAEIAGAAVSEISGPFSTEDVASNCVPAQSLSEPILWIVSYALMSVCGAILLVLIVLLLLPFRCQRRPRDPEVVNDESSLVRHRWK
Description: BACE2 Cell-Free Assay (BACE2 Enzyme Assay)
Selectivity versus related targets is important in terms of safety of a drug candidate. BACE2 is a close homolog of BACE1. BACE2 was recently reported to play a crucial role in pigmentation of the skin by processing pigment cell-specific melanocyte protein (PMEL). (Proc Natl Acad Sci USA. 2013 Jun. 25; 110(26):10658-63. doi: 10.1073/pnas.1220748110. Epub 2013 Jun. 10). It is believed that PMEL contributes in melanogenesis. Therefore, selectivity versus BACE2 is advantageous when it comes to pigmentation of the skin. The selectivity ratio of BACE2/BACE1 IC50 was calculated by dividing the BACE2 IC50 value by the BACE1 IC50 value determined each in the cell free assay. […] This implies a 3-fold improvement of example 1 compared to comparators 4 and 5.

T1 sequence (P56817 46-501): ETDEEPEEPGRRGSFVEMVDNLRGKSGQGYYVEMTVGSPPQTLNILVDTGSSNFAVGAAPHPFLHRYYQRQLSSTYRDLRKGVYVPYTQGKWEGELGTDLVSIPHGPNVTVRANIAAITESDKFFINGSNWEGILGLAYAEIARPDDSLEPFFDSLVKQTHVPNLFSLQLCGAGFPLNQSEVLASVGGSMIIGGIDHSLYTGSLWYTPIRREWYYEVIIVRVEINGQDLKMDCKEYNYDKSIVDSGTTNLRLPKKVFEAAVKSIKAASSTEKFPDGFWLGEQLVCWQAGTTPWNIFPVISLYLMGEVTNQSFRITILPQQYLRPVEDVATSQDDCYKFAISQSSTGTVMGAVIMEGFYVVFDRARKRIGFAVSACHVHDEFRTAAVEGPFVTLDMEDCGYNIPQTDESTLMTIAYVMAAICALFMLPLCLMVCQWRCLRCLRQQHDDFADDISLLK

Compound: Cc1cc(C#N)cnc1C(=O)Nc1ccc(F)c([C@@]2(C)N=C(N)O[C@H](C(F)(F)F)[C@@H]2F)n1 [Example 1, N-(6-((4R,5R,6S)-2-amino-5-fluoro-4-methyl-6-(trifluoromethyl)-5,6-dihydro-4H-1,3-oxazin-4-yl)-5-fluoropyridin-2-yl)-5-cyano-3-methylpicolinamide]
- IC50 (BACE1 [1]): 36 nM
- IC50 (BACE1 [2]): 15 nM
- Plasma concentration at 4 h, free (Rat single dose PK study; 4 h, free unbound): 12.5 nM
- Plasma concentration at 4 h (Rat single dose PK study; 4 h, total): 90.2 nM
- concentration at 4 h (Rat single dose PK study; Wistar, plasma, 4 h, free unbound, read-out: Plasma concentration at 4 h, free): 12.5 nM
- concentration at 4 h (Rat single dose PK study; Wistar, plasma, 4 h, free, read-out: Plasma concentration at 4 h, free): 41 ng/mL
- concentration at 4 h (Rat single dose PK study; Wistar, plasma, 4 h, total, read-out: Plasma concentration at 4 h): 90 nM and 41 ng/mL
- bioavailability (Rat single dose PK study; Wistar, plasma, po, read-out: Oral Bioavailability F): 62%
- CSF Aβ-lowering 1 mg/kg at 4 h (CSF Aβ40): 80%
- CSF Aβ-lowering 1 mg/kg at 4 h (CSF Aβ40; listed as example 1): 80%
- improvement of BACE2/BACE1 selectivity compared to comparators 4 and 5 (BACE2): 3 fold
- BACE2/BACE1 IC50 ratio (BACE2): 2.0
- BACE2/BACE1 IC50 ratio (BACE2; listed as example 1): 2
